One assay addresses T1, mTOR kinase (Homo sapiens, UniProt P42345).
T1 construct: purchased Millipore, USA
Briefly: mTOR kinase TR-FRET assay. The format is biochemical. The note with it: read-out: mTO R. The method, then: Compound inhibition for mTOR kinase was determined in a homogeneous TR-FRET assay using the Lance® ULight-p70 S6K (Thr 389) peptide (obtained from Perkin-Elmer). The ULight™-labeled synthetic peptide contains the amino acid residues surrounding Thr389 of human p70 S6K. The ULight-p70 S6K peptide is phosphorylated at Thr389 by mTOR. Phosphorylation motif: LGFTYVAP as substrate.
The compound dilution was carried out in 100% DMSO followed by a buffer dilution. The reaction buffer was HEPES (50 mM pH 7.5), EGTA (1 mM), MnCl2 (3 mM). Test compounds at various concentrations were pre-incubated with mTOR (Millipore, USA; 5 ng) for 60 min, and then the Lance® ULight-p70 S6K (Thr 389) peptide (50 nM) was added along with ATP (20 μM). After incubating the reaction mixture for 60 min at room temperature, the kinase reaction was terminated by the addition of EDTA (10 mM) followed by the addition of detection mix, i.e., 1 nM Eu-labeled anti-phospho-substrate antibody (Perkin Elmer, USA). The fluorescence emission at […] was measured upon excitation at 340 nm. IC50 values were subsequently determined using a sigmoidal dose-response curve (variable slope) in GraphPad Prism® 5 software.
Compounds of formula (I) caused inhibition of mTOR kinase activity as determined by this assay.
A general note: Time-resolved FRET reads energy transfer from a long-lived donor to a nearby acceptor.

Assay [1] deals with T2, PI3Kα (wild-type), P110/P85α (Homo sapiens, UniProt P42336).
T2 construct: made in house; host or cells: SF9 insect cells
T2 sequence (P42336 whole entry): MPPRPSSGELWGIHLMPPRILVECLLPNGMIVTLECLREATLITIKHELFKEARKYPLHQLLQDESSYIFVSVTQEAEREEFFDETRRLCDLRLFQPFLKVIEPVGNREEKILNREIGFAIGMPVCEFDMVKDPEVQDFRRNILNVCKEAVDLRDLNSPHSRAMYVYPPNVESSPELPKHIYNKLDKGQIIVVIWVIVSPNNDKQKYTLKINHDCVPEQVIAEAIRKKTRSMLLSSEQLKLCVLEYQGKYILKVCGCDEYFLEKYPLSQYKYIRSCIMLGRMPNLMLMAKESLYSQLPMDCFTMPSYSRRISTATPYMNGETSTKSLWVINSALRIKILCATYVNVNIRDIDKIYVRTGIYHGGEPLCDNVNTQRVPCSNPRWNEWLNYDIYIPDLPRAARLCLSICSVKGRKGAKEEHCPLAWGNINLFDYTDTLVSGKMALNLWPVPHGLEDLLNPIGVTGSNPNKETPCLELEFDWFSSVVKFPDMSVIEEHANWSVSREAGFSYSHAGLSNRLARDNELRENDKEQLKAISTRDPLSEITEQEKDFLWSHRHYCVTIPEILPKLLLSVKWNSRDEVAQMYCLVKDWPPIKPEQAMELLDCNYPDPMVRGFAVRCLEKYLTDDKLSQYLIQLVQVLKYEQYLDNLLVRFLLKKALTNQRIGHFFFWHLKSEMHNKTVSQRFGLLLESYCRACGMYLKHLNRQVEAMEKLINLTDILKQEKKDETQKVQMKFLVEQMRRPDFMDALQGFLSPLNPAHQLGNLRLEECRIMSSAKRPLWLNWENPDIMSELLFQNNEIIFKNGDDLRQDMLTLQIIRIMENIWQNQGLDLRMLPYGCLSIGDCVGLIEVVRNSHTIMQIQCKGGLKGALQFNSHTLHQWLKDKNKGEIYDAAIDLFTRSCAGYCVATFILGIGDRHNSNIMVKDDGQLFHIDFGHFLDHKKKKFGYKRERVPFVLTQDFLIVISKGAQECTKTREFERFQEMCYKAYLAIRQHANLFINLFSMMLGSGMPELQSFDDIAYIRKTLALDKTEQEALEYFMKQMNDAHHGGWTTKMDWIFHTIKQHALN
T2 sequence (P27986 whole entry partner): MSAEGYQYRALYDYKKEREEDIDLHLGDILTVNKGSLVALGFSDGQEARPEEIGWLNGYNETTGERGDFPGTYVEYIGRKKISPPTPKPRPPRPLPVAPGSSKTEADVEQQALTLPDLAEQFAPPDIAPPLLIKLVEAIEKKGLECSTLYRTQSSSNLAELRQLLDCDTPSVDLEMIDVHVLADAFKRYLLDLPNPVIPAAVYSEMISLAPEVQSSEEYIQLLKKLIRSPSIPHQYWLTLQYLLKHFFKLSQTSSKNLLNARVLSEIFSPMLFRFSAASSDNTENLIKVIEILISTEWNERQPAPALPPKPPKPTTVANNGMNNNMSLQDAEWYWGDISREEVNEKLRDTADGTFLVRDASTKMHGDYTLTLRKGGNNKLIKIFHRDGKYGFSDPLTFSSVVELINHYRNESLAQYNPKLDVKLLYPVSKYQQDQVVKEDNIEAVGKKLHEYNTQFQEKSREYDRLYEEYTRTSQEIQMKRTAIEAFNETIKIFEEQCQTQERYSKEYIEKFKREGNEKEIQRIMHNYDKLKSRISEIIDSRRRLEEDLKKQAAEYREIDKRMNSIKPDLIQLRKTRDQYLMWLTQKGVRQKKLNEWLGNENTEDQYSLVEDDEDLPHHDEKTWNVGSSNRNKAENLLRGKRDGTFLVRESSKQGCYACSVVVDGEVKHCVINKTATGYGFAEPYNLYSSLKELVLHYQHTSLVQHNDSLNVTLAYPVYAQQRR
Kind of assay: PI3 Kinase TR-FRET assay, PI3Kα (wild-type). The format is biochemical. The method, then: The ability of compounds of the invention to inhibit PI3K activity was determined in a homogeneous TR-FRET assay using a PI3K assay kit (Millipore, USA; cat #33-016) according to manufacturer's instructions. PI3-Kinases (isoforms α, β, γ and δ) catalyze the phosphorylation of phosphatidylinositol, PIP2 to PIP3 in the presence of ATP and Mg^2+. The PIP3 product is detected by displacement of biotin-PIP3 from an energy transfer complex consisting of Europium labeled anti-GST monoclonal antibody, a GST-tagged PH domain, biotinylated PIP3 and Streptavidin-APC. Excitation of Europium in the complex results in an energy transfer to the APC and a fluorescence emission at 665 nm. The PIP3 product displaces biotin-PIP3 from the complex resulting in a loss of energy transfer and thus a decrease in signal.
To test for the ability of compounds to inhibit the activity of PI3Kα (wild-type), exemplary compounds of formula (I) were dissolved in DMSO and directly distributed into 384-well plates at a volume of 0.5 μL. 14.5 μL of P110/P85α/PIP2 mixture in buffer (obtained from the Millipore kit) containing MgCl2 (40 mM) and DTT (5 mM) was added to compound wells and incubated for 60 min at room temperature. P110/P85α was expressed in SF9 insect cells and purified nickel column extraction. Five ng of wild-type P110/P85α was used in the assay. The kinase reaction was started by the addition of ATP. The assay concentrations of both PIP2 and ATP were 10 μM. The reaction mixture was incubated for 30 min at room temperature and was terminated by the addition of stop mix and detection mix. Fluorescence was measured at 615 and 665 nm upon excitation at 340 nm in a Victor™ V5 fluorometer (Perkin Elmer, USA). The fluorescence emission ratio at 665 to 615 nm, proportional to the kinase activity, was plotted against the compound concentration to generate dose-response curves and IC50 values were determined using GraphPad Prism® 5 software.

For 20 compounds, IC50 results are on record in US9115092B2, “Substituted quinazoline and pyrido-pyrimidine derivatives” (Asana Biosciences, LLC, priority 2010, dated 2015).

Regarding `CN(C)CCN(C)C(=O)c1ccc(NC(=O)Nc2ccc(-c3nc(N4CCOCC4)c4ccc(-c5ccco5)cc4n3)cc2)cc1` [Example 236, N-(2-(dimethylamino)ethyl)-4-(3-(4-(7-(furan-2-yl)-4-morpholino-quinazolin-2-yl)phenyl)ureido)-N-methyl-benzamide], the IC50 (on mTOR kinase; in assay [1]) was < 50 nM each time.

On to `CN(C)C(=O)c1ccc(NC(=O)Nc2ccc(-c3nc(N4CCOCC4)c4ncc(-c5cccnc5)cc4n3)cc2)c(F)c1` [Example 153, 3-fluoro-N,N-dimethyl-4-(3-(4-(4-morpholino-7-(pyridin-3-yl)pyrido[3,2-d]pyrimidin-2-yl)phenyl)ureido)-benzamide], for which the IC50 (at mTOR kinase; in assay [1]) was < 50 nM each time.

On to `CC(=O)Nc1ccc(NC(=O)Nc2ccc(-c3nc(N4CCOCC4)c4ncc(-c5cccnc5F)cc4n3)cc2)cc1` [Example 293, N-(4-(3-(4-(7-(2-fluoropyridin-3-yl)-4-morpholinopyrido[3,2-d]pyrimidin-2-yl)phenyl)ureido)phenyl) acetamide], for which the IC50 (at mTOR kinase; in assay [1]) was < 50 nM throughout.

Take `CN1CCN(C(=O)c2ccc(-c3ccc4c(N5CCOCC5)nc(-c5ccc(NC(=O)Nc6ccc(C(=O)N(C)C)cc6)cc5)nc4c3)o2)CC1` [Example 11, N,N-dimethyl-4-(3-(4-(7-(5-(4-methylpiperazine-1-carbonyl)furan-2-yl)-4-morpholino-quinazolin-2-yl)phenyl)ureido)-benzamide]: the IC50 (at mTOR kinase; in assay [1]) was < 50 nM each time.

As to `CN(C)C(=O)c1ccc(NC(=O)Nc2ccc(-c3nc(N4CCOCC4)c4ncc(-c5cnn(C)c5)cc4n3)cc2F)c(F)c1` [Example 141, 3-fluoro-4-(3-(2-fluoro-4-(7-(1-methyl-1H-pyrazol-4-yl)-4-morpholino-pyrido[3,2-d]pyrimidin-2-yl)phenyl)ureido)-N,N-dimethyl-benzamide], the IC50 on mTOR kinase was 50 to 200 nM; in assay [1], 201 to 10000 nM.

Regarding `CN(C)C(=O)c1ccc(NC(=O)Nc2ccc(-c3nc(N4CCOCC4)c4cc(F)c(-c5ccco5)cc4n3)cc2)cc1` [Example 149, 4-(3-(4-(6-fluoro-7-(furan-2-yl)-4-morpholino-quinazolin-2-yl)phenyl)ureido)-N,N-dimethyl-benzamide], the IC50 (at mTOR kinase; in assay [1]) was 50 to 200 nM throughout.

Regarding `CN(C)C(=O)c1ccc(NC(=O)Nc2ccc(-c3nc(N4CCOCC4)c4ncc(-c5cnc(N(C)C)nc5)cc4n3)cc2)cc1` [Example 230, 4-(3-(4-(7-(2-(dimethylamino)pyrimidin-5-yl)-4-morpholino-pyrido[3,2-d]pyrimidin-2-yl)phenyl)ureido)-N,N-dimethyl-benzamide], the IC50 (at mTOR kinase; in assay [1]) was < 50 nM in each case.

For `CN(C)C(=O)c1ccc(NC(=O)Nc2ccc(-c3nc(N4CCOCC4)c4ccc(-c5cnc(N(C)C)nc5)cc4n3)c(F)c2)cc1` [Example 277, 4-(3-(4-(7-(2-(dimethylamino)pyrimidin-5-yl)-4-morpholino-quinazolin-2-yl)-3-fluorophenyl)ureido)-N,N-dimethyl-benzamide], the IC50 (at mTOR kinase; in assay [1]) was < 50 nM in each case.

Regarding `Cc1ccc(-c2ccc3c(N4CCOCC4)nc(-c4ccc(NC(=O)Nc5ccc(C(=O)N(C)C)cc5)cc4)nc3c2)cn1` [Example 161, N,N-dimethyl-4-(3-(4-(7-(6-methylpyridin-3-yl)-4-morpholino-quinazolin-2-yl)phenyl)ureido)-benzamide], the IC50 (at mTOR kinase; in assay [1]) was < 50 nM throughout.

`CC1CN(c2nc(-c3ccc(NC(=O)Nc4ccc(C(=O)N(C)C)cc4)cc3)nc3cc(-c4cnn(C)c4)cnc23)CC(C)O1` (stereo not shown) [Example 125, 4-(3-(4-(4-(2,6-dimethylmorpholino)-7-(1-methyl-1H-pyrazol-4-yl)pyrido[3,2-d]pyrimidin-2-yl)phenyl)ureido)-N,N-dimethyl-benzamide]: the results for the IC50 (at mTOR kinase; in assay [1]) were 50 to 200 nM and 201 to 10000 nM, respectively.

With `CN(C)C(=O)c1ccc(NC(=O)Nc2ccc(-c3nc(N4CCOCC4)c4ccc(-c5cncnc5)cc4n3)cc2F)c(F)c1` [Example 139, 3-fluoro-4-(3-(2-fluoro-4-(4-morpholino-7-(pyrimidin-5-yl)quinazolin-2-yl)phenyl)ureido)-N,N-dimethyl-benzamide], the IC50 (at mTOR kinase; in assay [1]) was 201 to 10000 nM throughout.

On to `Cc1ccc(-c2ccc3c(N4CCOCC4)nc(-c4ccc(NC(=O)Nc5ccc(C(=O)N(C)C)cc5)cc4F)nc3c2)cn1` [Example 271, 4-(3-(3-fluoro-4-(7-(6-methylpyridin-3-yl)-4-morpholino-quinazolin-2-yl)phenyl)ureido)-N,N-dimethyl-benzamide], for which the IC50 (at mTOR kinase; in assay [1]) was < 50 nM in each case.

As to `CN(C)CCNC(=O)c1ccc(NC(=O)Nc2ccc(-c3nc(N4CCOCC4)c4ccc(-c5cncnc5)cc4n3)cc2)cc1` [Example 192, N-(2-(dimethylamino)ethyl)-4-(3-(4-(4-morpholino-7-(pyrimidin-5-yl)quinazolin-2-yl)phenyl)ureido)-benzamide], the IC50 on mTOR kinase is < 50 nM; in assay [1], 50 to 200 nM.

On to `CN(C)C(=O)c1ccc(NC(=O)Nc2ccc(-c3nc(N4CCOCC4)c4ncc(-c5cccnc5F)cc4n3)cc2)cc1` [Example 78, 4-(3-{4-[7-(2-fluoro-pyridin-3-yl)-4-morpholin-4-yl-pyrido[3,2-d]pyrimidin-2-yl]-phenyl}-ureido)-N,N-dimethyl-benzamide], for which the IC50 (at mTOR kinase; in assay [1]) was < 50 nM throughout.

For the compound `CN(C)CCNC(=O)c1ccc(-c2ccc3c(N4CCOCC4)nc(-c4ccc(NC(=O)Nc5ccc(C(=O)N(C)C)cc5)cc4)nc3c2)o1` [Example 225, N-(2-(dimethylamino)ethyl)-5-(2-(4-(3-(4-(dimethylcarbamoyl)phenyl)ureido)phenyl)-4-morpholino-quinazolin-7-yl)furan-2-carboxamide], the IC50 on mTOR kinase was < 50 nM; in assay [1], 50 to 200 nM.

As for `CN1CCN(C(=O)c2ccc(NC(=O)Nc3ccc(-c4nc(N5CCOCC5)c5ccc(-c6ccco6)cc5n4)cc3)cc2)CC1` [Example 158, 1-(4-(7-(furan-2-yl)-4-morpholino-quinazolin-2-yl)phenyl)-3-(4-(4-methylpiperazine-1-carbonyl)phenyl)urea], the values for the IC50 (at mTOR kinase; in assay [1]) were 50 to 200 nM and < 50 nM, respectively.

As to `CN(C)C(=O)c1ccc(NC(=O)Nc2ccc(-c3nc(N4CCOCC4)c4ccc(-c5ccco5)cc4n3)cc2)c(Cl)c1` [Example 171, 3-chloro-4-(3-(4-(7-(furan-2-yl)-4-morpholino-quinazolin-2-yl)phenyl)ureido)-N,N-dimethyl-benzamide], the IC50 (on mTOR kinase; in assay [1]) was 201 to 10000 nM each time.

Regarding `CN(C)C(=O)c1ccc(NC(=O)Nc2ccc(-c3nc(N4CCOCC4)c4ccc(-c5ccc(C(C)(C)O)o5)cc4n3)c(F)c2)cc1` [Example 276, 4-(3-(3-fluoro-4-(7-(5-(2-hydroxypropan-2-yl)furan-2-yl)-4-morpholino-quinazolin-2-yl)phenyl)ureido)-N,N-dimethyl-benzamide], the IC50 (on mTOR kinase; in assay [1]) was 50 to 200 nM each time.

Turning to `Cc1ccc(-c2ccc3c(N4CCOCC4)nc(-c4ccc(NC(=O)Nc5ccc(C(=O)N(C)C)cc5)cc4F)nc3c2)o1` [Example 239, 4-(3-(3-fluoro-4-(7-(5-methylfuran-2-yl)-4-morpholino-quinazolin-2-yl)phenyl)ureido)-N,N-dimethyl-benzamide], the IC50 (on mTOR kinase; in assay [1]) was 50 to 200 nM in each case.

For `COc1ccc(-c2ccc3c(N4CCOCC4)nc(-c4ccc(NC(=O)Nc5ccc(C(=O)N(C)C)cc5)c(F)c4)nc3c2)cn1` [Example 151, 4-(3-(2-fluoro-4-(7-(6-methoxypyridin-3-yl)-4-morpholino-quinazolin-2-yl)phenyl)ureido)-N,N-dimethyl-benzamide], the IC50 (on mTOR kinase; in assay [1]) was 50 to 200 nM in each case.
